Publication PMC12136037, “Type II kinase inhibitors that target Parkinson’s disease–associated LRRK2” (Science Advances, 2025)
“And” between values parts separate entries of the source, which are not always exact repeats. Identical values can stand only once.

How the values were obtained:
[1] = tested on: LRRK2 S935 phosphorylation; test: Western blot of LRRK2 biomarker site pS935 in transfected 293T cells; assay type: cell-based, human
Description: For all in cell kinase assays, after 48 hours, transfected cells were treated with either DMSO (control) or the indicated inhibitors for 4 hours at 37°C and 5% CO2. Following treatments, cells were washed three times with ice cold PBS. Cells were then lysed in ice cold radioimmunoprecipitation assay (RIPA) lysis buffer [50 mM tris (pH 8.0), 150 mM NaCl, 1% Triton X-100, 0.1% SDS, 0.5% sodium deoxycholate, and 1 mM DTT] in the presence of complete mini EASYpack protease inhibitor cocktail and the PhosSTOP EASYpack phosphatase inhibitor cocktail (Roche). Resuspended and lysed cells were clarified by centrifugation at 13,000g for 15 min at 4°C. NuPAGE LDS Sample Buffer (1×) and NuPAGE Sample Reducing Agent (1×; Invitrogen) were added to the clarified supernatants, and the samples were boiled at 95°C for 5 min and spun down at 13,000g for 10 min. For Western blotting, 15 μl of sample was loaded into a NuPAGE 4 to 12% gradient bis-tris gel (Invitrogen) and run at 120 V for 75 min before transfer to polyvinylidene difluoride transfer membrane (0.45-μm pore size, Millipore) for 240 min at 80 V at 4°C. The membrane was blocked in 5% milk in 1× Tris-buffered saline (TBS) [20 mM tris (pH 8.0) and 150 mM NaCl] for 1 hour shaking at room temperature. Primary antibodies [monoclonal rabbit anti-LRRK2 (Abcam, ab133474; RRID: AB_2713963), polyclonal rabbit anti-LRRK1 (Abcam, ab228666), monoclonal rabbit anti-LRRK2 phospho-S935 (Abcam, ab133450; RRID: AB_2732035), monoclonal rabbit anti-Rab8a phospho-T72 (Abcam, ab230260; RRID: AB_2814988), monoclonal rabbit anti-Rab7 phospho-S72 (Abcam, ab302494; RRID: AB_2933985), monoclonal rabbit anti–glyceraldehyde-3-phosphate dehydrogenase (GAPDH; Cell Signalling Technology, 2118; RRID: AB_561053), and monoclonal mouse anti-GFP (Santa Cruz Biotechnology, sc-9996; RRID: AB_627695)] were diluted in 5% milk in TBS and incubated with membrane for 16 hours at 4°C. Following incubation, membranes were washed three times with 1× TBS-T [20 mM tris (pH 8.0), 150 mM NaCl, and 0.1% Tween 20] before incubation with IRDye 680RD goat anti-rabbit IgG (LI-COR, 926-68071; RRID: AB_10956166) and IRDye 800CW goat anti-mouse IgG (LI-COR, 926-32210; RRID: AB_621842) secondary antibodies in 5% milk in 1× TBS for 1 hour at room temperature. Membranes were then washed three times in 1× TBS-T before imaging on Li-COR Odyssey CLx controlled by Imaging Studio software (www.licorbio.com/image-studio, RRID:SCR_015795). Image processing and quantification were performed in ImageJ version 2.14.0 (National Institutes of Health; https://imagej.net/, RRID:SCR_003070). The signal intensity of each band was assessed using the Analyze>Gels tool. The band intensity for phosphorylated LRRK2 was measured and compared to total LRRK2 levels (run under identical conditions on a separate gel). Band intensity for phosphorylated Rab7 or Rab8a was measured and compared against total GFP-Rab7 or GFP-Rab8a (using anti-GFP antibody) and LRRK1/LRRK2 levels as appropriate. Comparative statistical analysis of phosphorylation levels was analyzed using a one-way analysis of variance (ANOVA) and corrected using Tukey’s multiple comparisons test in GraphPad Prism 10 (www.graphpad.com/, RRID:SCR_002798). (For current step-by-step protocol for LRRK transfection and Western blotting, see dx.doi.org/10.17504/protocols.io.kxygx9bozg8j/v1.)

[2] = molecular target: T1, LRRK2^KW (Homo sapiens, UniProt Q5S007); test: DSF thermal stabilization of LRRK2^KW; assay type: binding; conditions: DSF, LRRK2^KW, 10 μM inhibitor
T1 construct: LRRK2 R1847 to E2527; His6-Z-tag (TEV cleavable) (N, cleaved yes); host or cells: Sf9 insect cells (baculovirus)
T1 sequence (Q5S007 1847-2527): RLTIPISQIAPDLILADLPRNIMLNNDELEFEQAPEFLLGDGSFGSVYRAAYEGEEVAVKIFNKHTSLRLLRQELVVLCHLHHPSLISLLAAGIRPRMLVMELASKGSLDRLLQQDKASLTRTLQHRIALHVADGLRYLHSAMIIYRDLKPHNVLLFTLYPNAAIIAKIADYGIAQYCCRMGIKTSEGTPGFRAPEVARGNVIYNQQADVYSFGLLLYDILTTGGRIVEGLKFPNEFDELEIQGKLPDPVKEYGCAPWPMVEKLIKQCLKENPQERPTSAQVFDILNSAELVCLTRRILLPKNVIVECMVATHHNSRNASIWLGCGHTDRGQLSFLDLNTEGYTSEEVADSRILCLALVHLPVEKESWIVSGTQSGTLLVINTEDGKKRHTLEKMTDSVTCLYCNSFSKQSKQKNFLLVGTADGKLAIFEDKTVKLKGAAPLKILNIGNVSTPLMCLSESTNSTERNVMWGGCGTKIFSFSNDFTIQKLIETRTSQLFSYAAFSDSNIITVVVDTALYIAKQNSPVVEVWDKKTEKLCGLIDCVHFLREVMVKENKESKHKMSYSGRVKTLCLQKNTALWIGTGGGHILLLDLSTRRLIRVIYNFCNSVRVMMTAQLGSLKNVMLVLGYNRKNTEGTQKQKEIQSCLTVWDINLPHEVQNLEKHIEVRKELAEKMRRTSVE
Summary of the method: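 DSF on 4 μM LRRK2^KW in 20 mM Hepes pH 7.4, 150 mM NaCl, 0.5 mM TCEP, 0.5% glycerol, 20 μM GDP, 2.5 mM MgCl2 with SYPRO Orange; inhibitor at 10 μM. Tm was taken as the minimum of the first derivative of fluorescence versus temperature, relative to control.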

[3] = molecular target: T2, LRRK2^RCKW (Homo sapiens, UniProt Q5S007); test: Biochemical LRRK2 activity assay (PhosphoSense, AssayQuant SOX peptide AQT0615); conditions: normalized to 0% (no kinase) and 100% (no inhibitor) control, two singlicate columns per compound
T2 construct: LRRK2 R1327 to E2527; His6-Z-tag (TEV cleavable) (N, cleaved yes); host or cells: Sf9 insect cells (baculovirus)
T2 sequence (Q5S007 1327-2527): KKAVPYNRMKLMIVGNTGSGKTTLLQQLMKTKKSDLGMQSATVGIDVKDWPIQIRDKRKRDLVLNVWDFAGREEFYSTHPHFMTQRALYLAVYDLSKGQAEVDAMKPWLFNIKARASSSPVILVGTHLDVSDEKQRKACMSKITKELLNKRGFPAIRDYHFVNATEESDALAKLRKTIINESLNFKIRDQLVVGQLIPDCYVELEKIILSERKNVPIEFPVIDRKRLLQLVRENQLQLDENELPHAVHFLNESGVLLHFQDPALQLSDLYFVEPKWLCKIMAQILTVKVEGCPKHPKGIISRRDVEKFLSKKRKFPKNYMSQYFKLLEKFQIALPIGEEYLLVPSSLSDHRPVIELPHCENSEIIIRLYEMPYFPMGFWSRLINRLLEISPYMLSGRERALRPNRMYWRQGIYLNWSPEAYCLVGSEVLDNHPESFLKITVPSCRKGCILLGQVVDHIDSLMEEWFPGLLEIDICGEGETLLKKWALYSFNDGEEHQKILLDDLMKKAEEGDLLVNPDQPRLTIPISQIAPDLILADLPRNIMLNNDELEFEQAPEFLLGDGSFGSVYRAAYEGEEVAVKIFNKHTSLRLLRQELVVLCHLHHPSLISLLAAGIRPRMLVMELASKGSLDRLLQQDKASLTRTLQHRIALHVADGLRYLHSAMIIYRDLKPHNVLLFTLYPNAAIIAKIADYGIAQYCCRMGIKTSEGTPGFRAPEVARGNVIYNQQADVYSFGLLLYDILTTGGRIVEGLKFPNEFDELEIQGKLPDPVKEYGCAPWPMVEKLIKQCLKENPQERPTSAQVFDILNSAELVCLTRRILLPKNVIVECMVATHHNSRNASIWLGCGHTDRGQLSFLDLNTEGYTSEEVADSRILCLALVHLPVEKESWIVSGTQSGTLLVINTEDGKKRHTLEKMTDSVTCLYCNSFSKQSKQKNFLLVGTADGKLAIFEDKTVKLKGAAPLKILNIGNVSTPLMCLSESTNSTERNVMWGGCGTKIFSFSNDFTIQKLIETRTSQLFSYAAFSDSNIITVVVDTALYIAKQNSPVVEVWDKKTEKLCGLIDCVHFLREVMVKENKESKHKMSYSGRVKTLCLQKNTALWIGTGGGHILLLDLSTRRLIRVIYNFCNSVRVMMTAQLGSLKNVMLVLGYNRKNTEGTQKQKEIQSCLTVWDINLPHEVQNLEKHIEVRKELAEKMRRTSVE
Description: Two wells per compound were used as 0% (without protein and compound) and 100% (without compound) control. […] The 0% control wells were filled with 10 μl of pure reaction buffer. With the ECHO, 5 nl of 100 mM ATP was pipetted into each well, the plates were centrifuged at 1500g for 2 min, and the reaction was incubated at room temperature for 4 hours. The fluorescence of the SOX-peptide after 360-nm excitation was measured at 487-nm emission with a PHERAstar plate reader (BMG Labtech). The IC50 values were calculated from a nonlinear regression of the log[inhibitor] versus the normalized response with GraphPad Prism 8 (www.graphpad.com/, RRID:SCR_002798).

| SMILES | pS935 LRRK2/LRRK2 normalized to DMSO, Mean ([1]; 500 nM, 4 h, 3 replicates) | pS935 LRRK2/LRRK2 normalized to DMSO ([1]; 500 nM, 4 h, individual Western blots) | effect on phosphorylation of LRRK2 S935 ([1]; 293T cells, MLi-2 500 nM) | ∆Tm (K) [2] | normalized response (LRRK2 activity) ([3]; log[inhibitor(mol)] -4.82391) | normalized response (LRRK2 activity) ([3]; log[inhibitor(mol)] -5.12494) | normalized response (LRRK2 activity) ([3]; log[inhibitor(mol)] -5.60206) | normalized response (LRRK2 activity) ([3]; log[inhibitor(mol)] -6.30103) | normalized response (LRRK2 activity) ([3]; log[inhibitor(mol)] -6.90309) | normalized response (LRRK2 activity) ([3]; log[inhibitor(mol)] -7.30103) | normalized response (LRRK2 activity) ([3]; log[inhibitor(mol)] -8.09691) | normalized response (LRRK2 activity) ([3]; log[inhibitor(mol)] -8.61979) | normalized response (LRRK2 activity) ([3]; log[inhibitor(mol)] -9.09691) | normalized response (LRRK2 activity) ([3]; log[inhibitor(mol)] -9.39794) |
| --- | --- | --- | --- | --- | --- | --- | --- | --- | --- | --- | --- | --- | --- | --- |
| C[C@@H]1CN(c2cc(-c3n[nH]c4ccc(OC5(C)CC5)cc34)ncn2)C[C@H](C)O1 [MLi-2, reference compound] | 0.05291 | 0.09836 and 0.02387 and 0.03651 | almost complete dephosphorylation | – | – | – | – | – | – | – | – | – | – | – |
| Cn1cc(-c2c[nH]c3ncnc(N4CCOCC4)c23)cc1C#N [PF-360, reference compound] | – | – | – | 14.0 ± 0.7 K | -6.35% and -14.8637% | -13.9757% and -14.0596% | -14.9079% and -13.9094% | -16.2775% and -13.8122% | -15.2172% and -15.9196% | -14.8814% and -10.0789% | -1.676% and 1.585% | 61.433% and 54.956% | 90.2569% and 81.7741% | 97.0785% and 81.4958% |
